US9040529B2 (Vichem Chemie Kutató Kft., priority 2009, dated 2015)
pIC50: −log10 of the molar value.

Molecular target: T1, human CDK9/CyclinT kinase complex (Homo sapiens, UniProt P50750)
T1 construct: purchased Proqinase 0371-0345-1
Test: In vitro CDK9/CyclinT assay (IMAP fluorescence polarization kinase assay)
Type: biochemical
Conditions: not given
Description: In Vitro CDK9/CyclinT Assay
The activity of the compounds described in the present invention can be determined by the following kinase assay, which measures the phosphorylation of a fluorescently-labeled peptide by human CDK9/CyclinT kinase complex by fluorescent polarization using a commercially available IMAP Screening Express Assay Kit (Molecular devices).
CDK9 kinase assays were performed in low protein binding 384-well plates (Corning 3676). Test compounds were diluted in 100% DMSO to 5 mM stock concentration, then further dilutions were made in H2O or 100% DMSO to desirable concentrations.
Each reaction consisted of 5 nM enzyme: CDK9/CyclinT (Proqinase cat#0371-0345-1), 400 nM TAMRA-Rbtide (synthetic 15-mer peptide derived from human retinoblastoma tumor suppressor protein labelled with TAMRA dye, Genecust Europe), 12 μM ATP (=Kmapp, Sigma-Aldrich) and kinase buffer: 20 mM MOPS pH 7 (Sigma-Aldrich), 1 mM DTT (Sigma-Aldrich), 10 mM MgCl2 (Sigma-Aldrich), 0.01% Tween 20 (Sigma-Aldrich).
For each reaction, 4 or 6 μl containing TAMRA-Rbtide, ATP and kianse buffer were combined with 2 μl diluted compound in H2O or 0.028 μl compound in 100% DMSO. The kinase reaction was started by the addition of 2 μl diluted enzyme. The reaction was allowed to run for 1 hours at room temperature. The reaction was stopped by adding 15 μl IMAP beads (1:400 beads in progressive (100% buffer A) 1× buffer). After an additional 1 hours, fluorescent polarization (Ex: 550-10 nm, Em: 590-10 nm, Dich: 561 nm) was measured using an Analyst GT (Molecular devices).

T1 sequence (P50750 whole entry): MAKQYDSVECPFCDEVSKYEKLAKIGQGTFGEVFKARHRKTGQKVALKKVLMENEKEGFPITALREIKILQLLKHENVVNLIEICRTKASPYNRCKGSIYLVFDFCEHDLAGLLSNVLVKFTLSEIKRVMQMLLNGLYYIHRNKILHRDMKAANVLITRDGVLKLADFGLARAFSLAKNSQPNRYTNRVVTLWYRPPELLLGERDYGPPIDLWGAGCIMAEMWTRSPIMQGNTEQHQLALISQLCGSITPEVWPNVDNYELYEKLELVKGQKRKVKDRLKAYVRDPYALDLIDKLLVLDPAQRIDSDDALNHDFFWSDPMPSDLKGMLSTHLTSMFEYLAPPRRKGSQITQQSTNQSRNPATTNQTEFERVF
T1 sequence (O60563 whole entry partner): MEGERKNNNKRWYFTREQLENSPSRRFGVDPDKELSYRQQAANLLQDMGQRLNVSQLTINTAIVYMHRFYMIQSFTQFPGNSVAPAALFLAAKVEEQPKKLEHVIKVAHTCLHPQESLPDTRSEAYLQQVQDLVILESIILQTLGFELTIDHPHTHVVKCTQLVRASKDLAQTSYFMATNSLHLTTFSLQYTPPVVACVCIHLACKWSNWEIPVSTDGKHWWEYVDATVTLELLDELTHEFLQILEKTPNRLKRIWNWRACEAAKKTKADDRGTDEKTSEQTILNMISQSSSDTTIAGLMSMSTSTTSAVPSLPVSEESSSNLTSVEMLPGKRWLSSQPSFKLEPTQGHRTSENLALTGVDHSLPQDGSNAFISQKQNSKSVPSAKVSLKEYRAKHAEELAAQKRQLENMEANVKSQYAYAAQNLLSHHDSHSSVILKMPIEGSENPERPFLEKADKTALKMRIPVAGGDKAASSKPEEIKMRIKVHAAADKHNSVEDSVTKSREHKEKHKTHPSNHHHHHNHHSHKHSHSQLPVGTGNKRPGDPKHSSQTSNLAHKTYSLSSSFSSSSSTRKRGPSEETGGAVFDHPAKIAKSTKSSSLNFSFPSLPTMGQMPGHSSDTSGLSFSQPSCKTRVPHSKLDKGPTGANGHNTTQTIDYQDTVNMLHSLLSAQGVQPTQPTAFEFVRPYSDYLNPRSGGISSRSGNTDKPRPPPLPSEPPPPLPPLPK

| CDK9 inhibitory effect | Structure (SMILES) |
| --- | --- |
| nanomolar or low nanomolar range | COc1ccccc1-c1cc(Nc2cccc(Cn3cnc4ccccc43)c2)ncn1 [Example 64, (3-Benzoimidazol-1-ylmethyl-phenyl)-[6-(2-methoxy-phenyl)-pyrimidin-4-yl]-amine] |
| nanomolar or low nanomolar range | COc1ccc(F)cc1-c1cc(Nc2cccc(Cn3cnc4ccccc43)c2)ncn1 [Example 66, (3-Benzoimidazol-1-ylmethyl-phenyl)-[6-(5-fluoro-2-methoxy-phenyl)-pyrimidin-4-yl]-amine] |
| nanomolar or low nanomolar range | COc1cc(F)ccc1-c1cc(Nc2cccc(Cn3cnc4ccccc43)c2)ncn1 [Example 65, (3-Benzoimidazol-1-ylmethyl-phenyl)-[6-(4-fluoro-2-methoxy-phenyl)-pyrimidin-4-yl]-amine] |
| nanomolar or low nanomolar range | CC(C)Oc1cc(F)ccc1-c1cc(Nc2ccc(CNS(C)(=O)=O)cc2)ncn1 [Example 48, N-{4-[6-(4-Fluoro-2-isopropoxy-phenyl)-pyrimidin-4-ylamino]-benzyl}-methanesulfonamide] |

Same assay, conditions: 5 nM CDK9/CyclinT, 400 nM TAMRA-Rbtide, 12 μM ATP, 1 hour at room temperature; read-out: CDK9 inhibitory range

| pIC50 | Structure (SMILES) |
| --- | --- |
| > 6.00 | COc1cccc(-c2cc(Nc3ccc(CNS(C)(=O)=O)cc3)ncn2)c1OC [Example 55, N-{4-[6-(2,3-Dimethoxy-phenyl)-pyrimidin-4-ylamino]-benzyl}-methanesulfonamide] |
| > 5.00 | CS(=O)(=O)NCc1ccc(Nc2cc(-c3ccccc3)ncn2)cc1 [Example 45, N-[4-(6-Phenyl-pyrimidin-4-ylamino)-benzyl]-methanesulfonamide] |
| > 6.00 | COc1cc(Cl)ccc1-c1cc(Nc2cccc(CNS(C)(=O)=O)c2)ncn1 [Example 25, N-{3-[6-(4-Chloro-2-methoxy-phenyl)-pyrimidin-4-ylamino]-benzyl}-methanesulfonamide] |
| > 6.00 | CC(C)Oc1ccccc1-c1cc(Nc2cccc(CNS(C)(=O)=O)c2)ncn1 [Example 8, N-{3-[6-(2-Isopropoxy-phenyl)-pyrimidin-4-ylamino]-benzyl}-methanesulfonamide] |
| > 5.00 | C[S+]([O-])c1ccccc1-c1cc(Nc2cccc(CNS(C)(=O)=O)c2)ncn1 (stereo not shown) [Example 29, N-{3-[6-(2-Methanesulfinyl-phenyl)-pyrimidin-4-ylamino]-benzyl}-methanesulfonamide] |
| > 5.00 | CS(=O)(=O)NCc1ccc(Nc2cc(-c3cccnc3)ncn2)cc1 [Example 52, N-[4-(6-Pyridin-3-yl-pyrimidin-4-ylamino)-benzyl]-methanesulfonamide] |
| > 5.00 | COc1cccc(-c2cc(Nc3ccc(CNS(C)(=O)=O)cc3)ncn2)c1 [Example 47, N-{4-[6-(3-Methoxy-phenyl)-pyrimidin-4-ylamino]-benzyl}-methanesulfonamide] |
| > 6.00 | CS(=O)(=O)NCc1cccc(Nc2cc(-c3ccccc3OCc3ccccc3)ncn2)c1 [Example 2, N-{3-[6-(2-Benzyloxy-phenyl)-pyrimidin-4-ylamino]-benzyl}-methanesulfonamide] |
| > 6.00 | COc1ccccc1-c1cc(Nc2cccc(CNS(=O)(=O)c3c(Cl)cccc3Cl)c2)ncn1 [Example 70, 2,6-Dichloro-N-{3-[6-(2-methoxy-phenyl)-pyrimidin-4-ylamino]-benzyl}-benzenesulfonamide] |
| < 5.00 | CS(=O)(=O)NCc1ccc(Nc2cc(-c3ccccc3C(F)(F)F)ncn2)cc1 [Example 43, N-{4-[6-(2-Trifluoromethyl-phenyl)-pyrimidin-4-ylamino]-benzyl}-methanesulfonamide] |
| > 6.00 | COc1ccc(-c2cc(Nc3cccc(CNS(C)(=O)=O)c3)ncn2)c(OC)c1 [Example 24, N-{3-[6-(2,4-Dimethoxy-phenyl)-pyrimidin-4-ylamino]-benzyl}-methanesulfonamide] |
| > 6.00 | CS(=O)(=O)NCc1cccc(Nc2cc(-c3ccccc3Oc3ccccc3)ncn2)c1 [Example 4, N-{3-[6-(2-Phenoxy-phenyl)-pyrimidin-4-ylamino]-benzyl}-methanesulfonamide] |
| > 6.00 | CS(=O)(=O)NCc1ccc(Nc2cc(-c3ccc(O)cc3)ncn2)cc1 [Example 76, N-{4-[6-(4-Hydroxy-phenyl)-pyrimidin-4-ylamino]-benzyl}-methanesulfonamide] |
| < 5.00 | O=C1c2ccccc2C(=O)N1Cc1cccc(Nc2cc(Cl)ncn2)c1 [Example 67, 2-[3-(6-Chloro-pyrimidin-4-ylamino)-benzyl]-isoindole-1,3-dione] |
| > 5.00 | COc1ccc(C)cc1-c1cc(Nc2cccc(CNS(C)(=O)=O)c2)ncn1 [Example 26, N-{3-[6-(2-Methoxy-5-methyl-phenyl)-pyrimidin-4-ylamino]-benzyl}-methanesulfonamide] |
| > 5.00 | Oc1cccc(-c2cc(Nc3cccc(Cn4cnc5ccccc54)c3)ncn2)c1 [Example 83, 3-[6-(3-Benzoimidazol-1-ylmethyl-phenylamino)-pyrimidin-4-yl]-phenol] |
| > 5.00 | COc1ccccc1-c1cc(Nc2cccc(CNC(=O)Nc3ccc(F)cc3)c2)ncn1 [Example 85, 1-(4-Fluoro-phenyl)-3-{3-[6-(2-methoxy-phenyl)-pyrimidin-4-ylamino]-benzyl}-urea] |
| > 6.00 | COc1ccc(-c2cc(Nc3ccc(CNS(C)(=O)=O)cc3)ncn2)cc1 [Example 57, N-{4-[6-(4-Methoxy-phenyl)-pyrimidin-4-ylamino]-benzyl}-methanesulfonamide] |

| pIC50 | Structure (SMILES) |
| --- | --- |
| < 5.00 | Clc1cc(Nc2cccc(CNc3nc4ccccc4[nH]3)c2)ncn1 [Example 59, (1H-Benzoimidazol-2-yl)-[3-(6-chloro-pyrimidin-4-ylamino)-benzyl]-amine] |
| > 7.00 | COc1ccccc1-c1cc(Nc2cccc(Cn3cnc4ccccc43)c2)ncn1 [Example 64, (3-Benzoimidazol-1-ylmethyl-phenyl)-[6-(2-methoxy-phenyl)-pyrimidin-4-yl]-amine] |
| > 5.00 | COc1ccccc1-c1cc(Nc2cccc(Cn3ccc4ccccc43)c2)ncn1 [Example 91, (3-Indol-1-ylmethyl-phenyl)-[6-(2-methoxy-phenyl)-pyrimidin-4-yl]-amine] |
| < 5.00 | CS(=O)(=O)NCc1cccc(Nc2cc(-c3ccccc3COc3ccc(OC(F)(F)F)cc3)ncn2)c1 [Example 30, N-(3-{6-[2-(4-Trifluoromethoxy-phenoxymethyl)-phenyl]-pyrimidin-4-ylamino}-benzyl)-methanesulfonamide] |
| > 5.00 | CS(=O)(=O)NCc1ccc(Nc2cc(-c3ccccc3F)ncn2)cc1 [Example 44, N-{4-[6-(2-Fluoro-phenyl)-pyrimidin-4-ylamino]-benzyl}-methanesulfonamide] |
| > 7.00 | COc1ccc(F)cc1-c1cc(Nc2cccc(Cn3cnc4ccccc43)c2)ncn1 [Example 66, (3-Benzoimidazol-1-ylmethyl-phenyl)-[6-(5-fluoro-2-methoxy-phenyl)-pyrimidin-4-yl]-amine] |
| < 5.00 | CS(=O)(=O)NCc1ccc(Nc2cc(-c3ccc(F)cc3F)ncn2)cc1 [Example 42, N-{4-[6-(2,4-Difluoro-phenyl)-pyrimidin-4-ylamino]-benzyl}-methanesulfonamide] |
| > 7.00 | COc1cc(F)ccc1-c1cc(Nc2cccc(Cn3cnc4ccccc43)c2)ncn1 [Example 65, (3-Benzoimidazol-1-ylmethyl-phenyl)-[6-(4-fluoro-2-methoxy-phenyl)-pyrimidin-4-yl]-amine] |
| < 5.00 | CS(=O)(=O)NCc1ccc(Nc2cc(Cl)ncn2)cc1 [Example 33, N-[4-(6-Chloro-pyrimidin-4-ylamino)-benzyl]-methanesulfonamide] |
| > 7.00 | CC(C)Oc1cc(F)ccc1-c1cc(Nc2cccc(Cn3cnc4ccccc43)c2)ncn1 [Example 81, (3-Benzoimidazol-1-ylmethyl-phenyl)-[6-(4-fluoro-2-isopropoxy-phenyl)-pyrimidin-4-yl]-amine] |
| > 5.00 | CS(=O)(=O)NCc1cccc(Nc2cc(-c3cccc(C(N)=O)c3)ncn2)c1 [Example 20, 3-{6-[3-(Methanesulfonylamino-methyl)-phenylamino]-pyrimidin-4-yl}-benzamide] |
| > 6.00 | CS(=O)(=O)NCc1cccc(Nc2cc(-c3ccccc3OCc3ccc(F)cc3)ncn2)c1 [Example 10, N-(3-{6-[2-(4-Fluoro-benzyloxy)-phenyl]-pyrimidin-4-ylamino}-benzyl)-methanesulfonamide] |
| > 7.00 | CC(C)Oc1cc(F)ccc1-c1cc(Nc2ccc(CNS(C)(=O)=O)cc2)ncn1 [Example 48, N-{4-[6-(4-Fluoro-2-isopropoxy-phenyl)-pyrimidin-4-ylamino]-benzyl}-methanesulfonamide] |
| > 5.00 | Cc1ccccc1-c1cc(Nc2cccc(CNS(C)(=O)=O)c2)ncn1 [Example 11, N-[3-(6-o-Tolyl-pyrimidin-4-ylamino)-benzyl]-methanesulfonamide] |
| > 7.00 | CC(C)Oc1cc(F)ccc1-c1cc(Nc2cccc(CNc3nc4ccccc4[nH]3)c2)ncn1 [Example 77, (1H-Benzoimidazol-2-yl)-{3-[6-(4-fluoro-2-isopropoxy-phenyl)-pyrimidin-4-ylamino]-benzyl}-amine] |
| > 6.00 | CSc1ccccc1-c1cc(Nc2cccc(CNS(C)(=O)=O)c2)ncn1 [Example 28, N-{3-[6-(2-Methylsulfanyl-phenyl)-pyrimidin-4-ylamino]-benzyl}-methanesulfonamide] |
| > 7.00 | CC(C)Oc1ccccc1-c1cc(Nc2cccc(Cn3cnc4ccccc43)c2)ncn1 [Example 80, (3-Benzoimidazol-1-ylmethyl-phenyl)-[6-(2-isopropoxy-phenyl)-pyrimidin-4-yl]-amine] |

| Structure (SMILES) | pIC50 |
| --- | --- |
| CC(C)COc1ccccc1-c1cc(Nc2ccc(CNS(C)(=O)=O)cc2)ncn1 [Example 51, N-{4-[6-(2-Isobutoxy-phenyl)-pyrimidin-4-ylamino]-benzyl}-methanesulfonamide] | > 6.00 |
